Article PMC7998705, “Dose-Dependent Solubility–Permeability Interplay for Poorly Soluble Drugs under Non-Sink Conditions” (Pharmaceutics, 2021)
In brackets after ≈: the same amount, converted by molar mass.

What was measured:
[1] = Theoretical calculation about permeability; settings: for Papp: not told; for Calculated Pm (app): Equation (3); for Calculated Daq (app): Equation (5), hUWL (app) = 100 μm; for Calculated Pm (U): pH 6.5 buffer; for Apparent permeability and flux reduced to (fraction): calculated, sink conditions, donor 5 μg/mL
Experimental: Based on Fick’s first law, flux in the drug permeation can be expressed as shown in Equation (1): [36, 43]
As described in the introduction, overall permeation can be divided into membrane permeation and UWL permeation.
Pm (app) is calculated using the fraction of UFDs (FU) as shown in Equation (3):(3) Pm (app)= FUPm (U) where Pm (U) is the intrinsic permeability of UFDs.
PUWL (app) can be expressed using the apparent aqueous diffusivity (Daq (app)) from Fick’s first law as shown in Equation (5): (5) PUWL (app)= Daq (app)/hUWL (app) where hUWL (app) is the apparent thickness of the UWL. When there are no solubilizer additives in the drug formulation or test media in the permeability measurements, Equation (5) can be described as shown in Equation (6):(6) PUWL (U)= Daq (U)/hUWL (U) where hUWL (U) is the intrinsic thickness of the UWL and Daq (U) is the intrinsic aqueous diffusivity of UFDs. The thickness of the UWL can be determined based on rotation speed in the flux experiment. If the rotation speed is constant, we can assume that the thickness of the UWL is constant, independent of the addition of solubilizer additives, as shown in Equation (7):(7) hUWL (app)= hUWL (U)
Substituting hUWL (app) of Equation (5) and hUWL (U) of Equation (6) for Equation (7), PUWL (app) is described as shown in Equation (8):(8) PUWL (app)= PUWL (U)×Daq (app)/Daq (U)
The apparent aqueous diffusivity (Daq (app)) is a combined total of each fraction of aqueous diffusivity as shown in Equation (9):(9) Daq (app)= FUDaq (U) + (1−FU)Daq (B) where FU is the same fraction of UFDs as in Equation (4) and Daq (B) is the aqueous diffusivity of drug molecules bound to solubilizer additives. PUWL (app) can be calculated by Equations (6), (8), and (9) as shown in Equation (10):(10) PUWL (app)= 1/hUWL (app) {FUDaq(U) + (1−FU)Daq (B)}
Using the MW of the model compounds, each Daq (U) was calculated (calculated Daq (U) in Table 4). The UWL thickness (hUWL (app) or hUWL (U)) for the MicroFlux^TM measurements in this study was estimated to be around 100 μm based on previous studies. The intrinsic UWL permeability of UFDs (PUWL (U)) was then calculated by Equation (6) (calculated PUWL (U) in Table 4).
The apparent membrane permeability (Pm (app)) was calculated by Equation (3) using the fraction of UFDs (FU) in Table 3 and Pm (U) (calculated Pm (app) in Table 5). […] The apparent aqueous diffusivity (Daq (app)) was calculated by Equation (5) using PUWL (app) and hUWL (app) = 100 μm (calculated Daq (app) in Table 5). Substituting FU, Daq (app), and Daq (U) in Equation (9), the aqueous diffusivity of drug molecules bound to SLS (Daq (B)) was calculated (calculated Daq (B) in Table 5). As for triamcinolone, Daq (B) was not calculated in this study. […] As the aggregated number of SLS in aqueous solutions was reported to be 62, their micellar weight appeared to be around 18,000 Da. […] Assuming this micellar size is constant, permeability and flux could be calculated by Equation (10) and Equation (12) using the apparent solubility.
When pH 6.5 buffer is in the donor chamber, the apparent UWL thickness is expressed using Equations (2) and (6) as shown in Equation (14):(14) hUWL (app)=Daq (U)(1/Papp−1/Pm (U))

[2] = set-up: method as in PMID 17724660, PMID 8668668, PMID 1808607; settings: partitioning between octanol and water; cited from earlier work
[3] = Flux measurements by MicroFlux; settings: for Papp: not told, sink conditions, average ± SD (n = 3); for Flux in pH 6.5 buffer + 0.05% SLS compared with pH 6.5 buffer: sink conditions (5 μg/mL griseofulvin, 100 μg/mL triamcinolone)
Experimental: (§1) The concentration–time profiles were determined via manual sampling from the donor chambers and acceptor chambers during flux measurements. At 0, 30, 60, 120, 240, and 360 min, 100 μL of the acceptor chamber solution was withdrawn and diluted to 100 μL (2× dilution) of 3:2 DMA:ethylene glycol (v/v). At the same time point, 400 μL of the donor chamber solution was withdrawn and filtered through a polytetrafluoroethylene (PTFE) membrane filter of 0.22 μm pose size. Then, 100 μL of the filtered solution was diluted to 100 μL (2× dilution) of 3:2 DMA:ethylene glycol (v/v). The sample concentration was determined by ultra-high-performance liquid chromatography (UHPLC).
From the obtained concentration–time profiles in the acceptor chambers, the flux (J) was calculated. The flux refers to the mass transfer through the membrane, and it is defined as the total amount of material crossing one unit area of the membrane per unit time, as described by Equation (11):(11) J (t)=1/A·dm/dt= V/A·dC(t)/dt where dm/dt (μg/mL) is the total amount of material crossing the membrane per unit time, A is the area of the membrane (1.54 cm^2), V is the volume of the acceptor chamber (20 mL), and dC(t)/dt (μg/(mL⋅min)) is the slope of the concentration–time profiles in the acceptor chambers. Time intervals were selected in each test to exclude the lag time of the concentration–time profile and calculate the initial flux. […] Based on Fick’s first law, assuming the sink condition in the acceptor chambers, the flux can be described by Equation (12):(12) J (t)=PappCD(t) where Papp is the apparent permeability of drugs and CD (t) is the drug concentration in the donor chambers.
The sample concentrations were measured on a Waters (Milford, MA) Acquity UPLC H-Class system. An Acquity UPLC® BEH Shield RP18 1.7 μm, 2.1 × 50 mm, was used for chromatographic separation. A gradient mobile phase, spanning 95:5 to 0:100 (v/v) water:MeCN (both containing 0.05%TFA) over 2.0 min, was pumped at a flow rate of 1.0 mL/min. […] The injection volume and ultraviolet (UV) wavelength for triamcinolone were 1 μL and 292 nm, respectively.

[4] = set-up: method as in PMID 20006692; settings: 500 mg dose; cited from earlier work
[5] = 37 °C; cited from earlier work
[6] = pH 6.5
Experimental: as §1
(§2) The sample concentrations were measured on a Waters (Milford, MA) Acquity UPLC H-Class system. An Acquity UPLC® BEH Shield RP18 1.7 μm, 2.1 × 50 mm, was used for chromatographic separation. A gradient mobile phase, spanning 95:5 to 0:100 (v/v) water:MeCN (both containing 0.05%TFA) over 2.0 min, was pumped at a flow rate of 1.0 mL/min.

physchem = settings: 37 °C, thermodynamic from solid
Experimental: as §1, §2

[7] = pH 6.5, pH 6.5 buffer + 0.05% SLS, read-out: Calculated Papp (converted)
[8] = pH 6.5, pH 6.5 buffer, read-out: Calculated Papp (U) (converted)
[9] = pH 6.5, Measured Papp (U), pH 6.5 buffer
[10] = pH 6.5, Measured Papp, pH 6.5 buffer + 0.05% SLS

## C[C@]12C=CC(=O)C=C1CC[C@H]1[C@@H]3C[C@@H](O)[C@](O)(C(=O)CO)[C@@]3(C)C[C@H](O)[C@@]12F [Triamcinolone]
[1]; [7]
  Papp: 4.38 ×10⁻⁶ cm/s
[1]; [8]
  Papp: 5.07 ×10⁻⁶ cm/s
[1]; pH 6.5 buffer + 0.05% SLS
  Calculated Pm (app): 0.0003 cm/min
  Calculated Daq (app): 3.54 × 10^−7 cm^2/s
[1]; Equation (2)
  Calculated Pm (U): 0.000307 cm/min
[1]; Equation (2), listed as triamcinolone
  Calculated Pm (U): around 0.0003 cm/min
[2]
  Log P: 1.03 [40, 42]
[3]; 500, 2000 and 10,000 μg/mL doses (non-sink), pH 6.5 buffer and pH 6.5 buffer + 0.05% SLS
  Sample concentration in the donor chamber: about 200 μg/mL
[3]; [9]
  Papp: 5.07 ×10⁻⁶ cm/s
[3]; [10]
  Papp: 4.38 ×10⁻⁶ cm/s
[3]; pH 6.5 buffer + 0.05% SLS, non-sink conditions
  Flux and donor concentration at the 10,000 μg/mL dose, higher than at 500 and 2000 μg/mL doses: about 10%
[3]
  Flux in pH 6.5 buffer + 0.05% SLS compared with pH 6.5 buffer: almost similar values

## COC1=CC(=O)C[C@@H](C)[C@]12Oc1c(Cl)c(OC)cc(OC)c1C2=O [Griseofulvin]
[4]
  Increase of in vivo permeability and in vivo drug absorption by solid drugs in the UWL: about twofold
[5]
  Aqueous solubility: 29.9 [40, 41] μg/mL
[1]; apparent solubility increased by 5 times
  Apparent permeability and flux reduced to (fraction): about 1/4
[1]; apparent solubility increased by 10 times
  Apparent permeability and flux reduced to (fraction): 1/7
[1]; drug molecules bound to SLS, Equation (9)
  Calculated Daq (B): 8.37 × 10^−7 cm^2/s
[1]; [7]
  Papp: 108 ×10⁻⁶ cm/s
[1]; [8]
  Papp: 247 ×10⁻⁶ cm/s
[1]; pH 6.5 buffer + 0.05% SLS, Equation (2)
  Calculated PUWL (app): 0.0153 cm/min
[1]; pH 6.5 buffer + 0.05% SLS
  Calculated Pm (app): 0.0112 cm/min
  Calculated Daq (app): 2.56 × 10^−6 cm^2/s
[1]; Equation (2)
  Calculated Pm (U): 0.0284 cm/min
[6]
  Solubility change by the addition of 0.05% SLS: about 2.5 fold
  UFD Amount: 10.75 µg/mL
[3]; 50, 200 and 1000 μg/mL doses (non-sink), pH 6.5 buffer
  Sample concentration in the donor chamber: about 10 μg/mL
[3]; 50, 200 and 1000 μg/mL doses (non-sink), pH 6.5 buffer + 0.05% SLS
  Sample concentration in the donor chamber: about 25 μg/mL
[3]; based on Equation (12)
  Apparent permeability in pH 6.5 buffer + 0.05% SLS compared with pH 6.5 buffer: almost half
[3]; donor concentration almost constant
  Increase of total permeated amount when the dose amount exceeded solubility: 20–30%
[3]; non-sink conditions, both pH 6.5 buffer and pH 6.5 buffer + 0.05% SLS
  Flux increase depending on the dose amount: 10–30%
[3]; [9]
  Papp: 247 ×10⁻⁶ cm/s
[3]; [10]
  Papp: 108 ×10⁻⁶ cm/s
[3]
  Flux in pH 6.5 buffer + 0.05% SLS compared with pH 6.5 buffer: almost half
physchem; pH 6.5, aqueous buffer
  solubility: 10.8 ± 0.38 µg/mL (≈ 30.5 µM)
physchem; pH 6.5, aqueous with cosolvent or surfactant or cyclodextrin
  solubility: 27.4 ± 0.07 µg/mL (≈ 77.7 µM)
